In paper PMC4541407 (2015):

Legend:
[1] = test system: c-MYC (NMR oligonucleotide) (DNA, G4) TGAGGGTGGGTAGGGTGGGTAA; experiment: 1H NMR imino titration
[2] = test system: ds DNA (dual labelled) (DNA, duplex) CCAGTTCGTAGTAACCC/GGGTTACTACGAACTGG; experiment: FRET melting; conditions: 50 mM K+, 50 mM potassium cacodylate pH 7.4
[3] = test system: c-KIT1 (DNA, G4) GGGAGGGCGCTGGGAGGGAGGG; experiment: fluorescence titration; conditions: 100 mM K+; 100 mM Tris-HCl pH 7.4, 25 °C; 1.0 µM ligand, DNA 0-6 equiv
[4] = test system: c-KIT1 (dual labelled) (DNA, G4) GGGAGGGCGCTGGGAGGGAGGG; experiment: FRET melting
[5] = test system: c-KIT2 (dual labelled) (DNA, G4) GGGCGGGCGCGAGGGAGGGG; experiment: FRET melting
[6] = test system: c-MYC (DNA, G4) TGAGGGTGGGTAGGGTGGGTAA; experiment: fluorescence titration; conditions: 100 mM Tris-HCl pH 7.4, 25 °C; for KD: 100 mM K+, 1.0 µM ligand, DNA 0-6 equiv
[7] = test system: c-KIT2 (DNA, G4) GGGCGGGCGCGAGGGAGGGG; experiment: fluorescence titration; conditions: 100 mM K+; 100 mM Tris-HCl pH 7.4, 25 °C; 1.0 µM ligand, DNA 0-6 equiv
[8] = test system: ds DNA (DNA, duplex) CCAGTTCGTAGTAACCC/GGGTTACTACGAACTGG; experiment: fluorescence titration; conditions: 100 mM K+; 100 mM Tris-HCl pH 7.4, 25 °C; 1.0 µM ligand, DNA 0-6 equiv
[9] = test system: c-MYC (dual labelled) (DNA, G4) TGAGGGTGGGTAGGGTGGGTAA; experiment: FRET melting
[10] = 50 mM K+, 50 mM potassium cacodylate pH 7.4, 1.0 µM ligand

binding ([1]; 100 mM K+, 25 mM Tris-HCl pH 7.4, 298 K, 100 µM DNA, binds minor conformation) | binding ([1]; no added K+, 25 mM Tris-HCl pH 7.4, 298 K, 100 µM DNA, binds minor conformation) | binding ([2]; up to 1.0 µM ligand) | KD [3] | ΔTm ([4]; 50 mM K+, 50 mM potassium cacodylate pH 7.4, 750 nM ligand, maximum measurable shift) | binding ([4]; no added K+, MQ water pH 7.4, saturation at 1 µM ligand) | ΔTm ([5]; 50 mM K+, 50 mM potassium cacodylate pH 7.4, 500 nM ligand, maximum measurable shift) | binding ([5]; no added K+, MQ water pH 7.4, saturation at 750 nM ligand) | KD [6] | binding ([6]; no added K+, 5.5-fold enhancement, 25 nm blue shift, Kd n.d.) | KD [7] | Kd [8] | ΔTm ([9]; 50 mM K+, 50 mM potassium cacodylate pH 7.4, 100 nM ligand, maximum measurable shift) | binding ([9]; no added K+, MQ water pH 7.4, saturation at 250 nM ligand) | binding ([1]; 100 mM K+, 25 mM Tris-HCl pH 7.4, stabilizes minor conformation(s)) | binding [9, 10] | binding ([2]; 1.0 µM ligand) | binding [4, 10] | binding [5, 10] | SMILES
yes | yes | no | 1380 ± 70 nM | 39.4 ± 2.5 K | yes | 23.2 ± 1.6 K | yes | 300 ± 15 nM | yes | 1370 ± 60 nM | > 10000 nM | 22.7 ± 1.4 K | yes |  |  |  |  |  | CN(C)CCCNC(=O)c1ccc(-n2cc(-c3ccc4c(c3)c3cc(-c5cn(-c6ccc(C(=O)NCCCN(C)C)cc6)nn5)ccc3n4CCCN(C)C)nn2)cc1
 |  |  |  |  |  |  |  | > 20000 nM |  |  |  |  |  | yes | yes |  |  |  | CN(C)CCCn1c2ccc(-c3cn(-c4ccc(N)cc4)nn3)cc2c2cc(-c3cn(-c4ccc(N)cc4)nn3)ccc21
 |  |  |  |  |  |  |  |  |  |  |  |  |  |  | no | no | no | no | C#Cc1ccc2c(c1)c1cc(C#C)ccc1n2CCCN(C)C
